Experimental data: ChEMBL document CHEMBL1133574, “alpha-Substituted N-(sulfonamido)alkyl-beta-aminotetralins: potent and selective neuropeptide Y Y5 receptor antagonists” (J Med Chem, 2000)

Target: T1, Neuropeptide Y receptor type 5 (Homo sapiens, UniProt Q15761)
T1 sequence (Q15761 whole entry): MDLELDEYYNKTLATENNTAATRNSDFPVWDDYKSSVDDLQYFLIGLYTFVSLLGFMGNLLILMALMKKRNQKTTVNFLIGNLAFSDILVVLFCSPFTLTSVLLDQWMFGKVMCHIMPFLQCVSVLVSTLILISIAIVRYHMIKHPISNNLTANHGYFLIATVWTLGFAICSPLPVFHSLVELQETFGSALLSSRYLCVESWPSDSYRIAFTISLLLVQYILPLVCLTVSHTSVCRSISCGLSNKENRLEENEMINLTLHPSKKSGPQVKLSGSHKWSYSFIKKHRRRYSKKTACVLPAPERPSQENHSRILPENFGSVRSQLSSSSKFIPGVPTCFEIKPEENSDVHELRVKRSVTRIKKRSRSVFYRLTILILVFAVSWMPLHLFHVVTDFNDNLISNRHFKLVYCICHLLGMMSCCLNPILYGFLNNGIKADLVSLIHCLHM
Experiment: Inhibition of [125I]-PYY binding to recombinant NPY Y5 receptor on HEK293 cell membranes.
Format: cell-based

SMILES: O=C(CN1CCC(NS(=O)(=O)c2ccccc2)CC1)NC1CCc2cc(F)ccc2C1Cc1cccnc1 (configuration not stated)
- IC50: 10 nM

SMILES: COc1ccc2c(c1)CCC(NCCCCCCNS(=O)(=O)c1ccccc1)C2Cc1cccnc1 (configuration not stated)
- IC50: 53 nM

SMILES: O=C(CN1CC[C@@H](NS(=O)(=O)c2ccccc2)C1)NC1CCc2cc(F)ccc2C1Cc1cccnc1 (some centres not stated)
- IC50: 27 nM

SMILES: C=CCC1c2ccc(F)cc2CCC1NC(=O)[C@H]1CC[C@H](CNS(=O)(=O)c2ccccc2)CC1 (some centres not stated)
- IC50: 75 nM

SMILES: O=S(=O)(NC[C@H]1CC[C@H](CNC2CCc3cc(O)ccc3C2Cc2cccnc2)CC1)c1ccccc1F (some centres not stated)
- IC50: 7 nM

SMILES: COc1ccc2c(c1)CCC(NC[C@H]1CC[C@H](CNS(=O)(=O)c3ccccc3F)CC1)C2Cc1cccnc1 (some centres not stated)
- IC50: 23 nM

SMILES: COc1ccc2c(c1)CCC(NC(=O)[C@H]1CC[C@H](CNS(=O)(=O)c3ccccc3F)CC1)C2Cc1cccnc1 (some centres not stated)
- IC50: 11 nM

SMILES: COc1ccc2c(c1)CCC(NC[C@H]1CC[C@H](CNS(=O)(=O)c3ccc4ccccc4c3)CC1)C2Cc1ccccc1 (some centres not stated)
- IC50: 443 nM

SMILES: COc1ccc2c(c1)CCC(NC[C@H]1CC[C@H](CNS(=O)(=O)c3ccc4ccccc4c3)CC1)C2Cc1cccnc1 (some centres not stated)
- IC50: 337 nM

SMILES: O=C(NC1CCc2cc(F)ccc2C1Cc1cccnc1)[C@H]1CC[C@H](CNS(=O)(=O)c2ccccc2)CC1 (some centres not stated)
- IC50: 40 nM

SMILES: COc1ccc2c(c1)CCC(NC(=O)[C@H]1CC[C@H](CNS(=O)(=O)c3ccccc3)CC1)C2Cc1cccnc1 (some centres not stated)
- IC50: 11 nM

SMILES: O=S(=O)(NC[C@H]1CC[C@H](CNC2CCc3cc(F)ccc3C2Cc2cccnc2)CC1)c1ccccc1F (some centres not stated)
- IC50: 19 nM

SMILES: O=S(=O)(NC[C@H]1CC[C@H](CNC2CCc3cc(F)ccc3C2Cc2cccnc2)CC1)c1ccccc1 (some centres not stated)
- IC50: 27 nM

SMILES: C=CCC1c2ccc(O)cc2CCC1NC[C@H]1CC[C@H](CNS(=O)(=O)c2ccccc2)CC1 (some centres not stated)
- IC50: 5 nM

SMILES: C=CCC1c2ccc(F)cc2CCC1NC[C@H]1CC[C@H](CNS(=O)(=O)c2ccccc2)CC1 (some centres not stated)
- IC50: 21 nM

SMILES: COc1ccc2c(c1)CCC(NC[C@H]1CC[C@H](CNS(=O)(=O)c3ccccc3)CC1)C2Cc1cccnc1 (some centres not stated)
- IC50: 10 nM

SMILES: O=C(NC1CCc2cc(F)ccc2C1Cc1cccnc1)[C@H]1CC[C@H](CNS(=O)(=O)c2ccccc2F)CC1 (some centres not stated)
- IC50: 12 nM

SMILES: O=C(CN1CC[C@H](NS(=O)(=O)c2ccccc2)C1)NC1CCc2cc(F)ccc2C1Cc1cccnc1 (some centres not stated)
- IC50: 5 nM

SMILES: N[C@@H](CCCCNS(=O)(=O)c1ccccc1F)C(=O)NC1CCc2cc(F)ccc2C1Cc1cccnc1 (some centres not stated)
- IC50: 22 nM

SMILES: N[C@@H](CCCCNS(=O)(=O)c1ccccc1F)CNC1CCc2cc(O)ccc2C1Cc1cccnc1 (some centres not stated)
- IC50: 1 nM

SMILES: O=C(CN1CCC(NS(=O)(=O)c2ccccc2)C1)NC1CCc2cc(F)ccc2C1Cc1cccnc1 (configuration not stated)
- IC50: 11 nM

SMILES: COc1ccc2c(c1)CCC(NCCc1ccc(OC)c(OC)c1)C2Cc1ccccc1 (configuration not stated)
- IC50: 900 nM
